In US20250338849A1 (priority 2022, published 2025):

Tests used:
Format in all cases: cell-based
Septoria tritici = test: Activity against leaf blotch on wheat caused by Septoria tritici (microtiter plate); details: single active
Pyricularia oryzae = test: microbe, parasite or virus in culture; details: for Observed efficacy: single active; for inhibition of growth at 4 ppm / inhibition of growth at 0.016 ppm / inhibition of growth at 0.063 ppm / inhibition of growth at 0.25 ppm / inhibition of growth at 1 ppm: Pyricularia oryzae, 168 h, read-out: Observed efficacy
Botrytis cinerea = test: Activity against the grey mold Botrytis cinerea in the microtiterplate test; details: single active
[1] = Zymoseptoria tritici, 168 h, 0.25 ppm, read-out: Observed efficacy
[2] = Zymoseptoria tritici, 168 h, read-out: Observed efficacy
[3] = Botrytis cinerea, 168 h, read-out: Observed efficacy
[4] = Zymoseptoria tritici, 168 h, 0.016 ppm, read-out: Observed efficacy
[5] = Zymoseptoria tritici, 168 h, 0.063 ppm, read-out: Observed efficacy
[6] = Botrytis cinerea, 168 h, 0.063 ppm, read-out: Observed efficacy

Molecule `O=C(NC1CCC1c1ccc(Cl)cc1Cl)c1cccnc1C(F)(F)F` (stereo in doubt) [Cyclobutrifuram, cyclobutrifluram] has an Observed efficacy (Septoria tritici; 0.25 ppm) of 34% and an Observed efficacy (Pyricularia oryzae; 1 ppm) of 14%.

For `CO/C=C(/C(=O)OC)c1ccccc1Oc1cc(Oc2ccccc2C#N)ncn1` [Azoxystrobin, azoxystrobin], the Observed efficacy (Septoria tritici; 0.016 ppm) was 3%, the Observed efficacy (Septoria tritici; 0.063 ppm) was 43% and the Observed efficacy (Pyricularia oryzae; 0.016 ppm) was 59%.

In the case of `O=C(Nc1ccccc1-c1ccc(Cl)cc1)c1cccnc1Cl` [Boscalid, boscalid], the inhibition of growth at 0.25 ppm (Septoria tritici; [1]) is reported as 21%, the inhibition of growth at 1 ppm (Septoria tritici; [2]) is reported as 62% and the inhibition of growth at 4 ppm (Pyricularia oryzae) is reported as 12%. For the same molecule, the inhibition of growth at 1 ppm (Botrytis cinerea; [3]) was 76%.

`Cc1cc(C2=NC(C)(C)Oc3c2ccc(F)c3F)cnc1C(F)F` [Compound 1-1] was tested, and the inhibition of growth at 0.004 ppm (Septoria tritici; Zymoseptoria tritici, 168 h, 0.004 ppm, read-out: Observed efficacy) was 4%, the inhibition of growth at 0.016 ppm (Septoria tritici; [4]) was 3% and the inhibition of growth at 0.063 ppm (Septoria tritici; [5]) was 10%. For the same molecule, the inhibition of growth at 0.25 ppm (Septoria tritici; [1]) was 22%, the inhibition of growth at 0.016 ppm (Pyricularia oryzae) was 8% and the inhibition of growth at 0.063 ppm (Pyricularia oryzae) was 10%. It also gave an inhibition of growth at 0.25 ppm (Pyricularia oryzae) of 21%, an inhibition of growth at 1 ppm (Pyricularia oryzae) of 65% and an inhibition of growth at 1 ppm (Botrytis cinerea; [3]) of 33%.

With `Cc1cc(C2=NC(C)(C)Oc3c(F)cccc32)cnc1C(F)F` [Compound 1-2] the inhibition of growth at 0.25 ppm (Septoria tritici; [1]) was 0%, the inhibition of growth at 1 ppm (Septoria tritici; [2]) was 0% and the inhibition of growth at 0.063 ppm (Pyricularia oryzae) was 4%. It also gave an inhibition of growth at 0.25 ppm (Pyricularia oryzae) of 15%, an inhibition of growth at 1 ppm (Pyricularia oryzae) of 31% and an inhibition of growth at 1 ppm (Botrytis cinerea; [3]) of 19%.

For `COc1ccc2c(c1F)OC(C)(C)N=C2c1cnc(C(F)F)c(C)c1` [Compound 1-3], the inhibition of growth at 0.063 ppm (Septoria tritici; [5]) was 21%, the inhibition of growth at 0.25 ppm (Septoria tritici; [1]) was 20% and the inhibition of growth at 1 ppm (Septoria tritici; [2]) was 18%. It also gave an inhibition of growth at 0.063 ppm (Pyricularia oryzae) of 0%, an inhibition of growth at 1 ppm (Pyricularia oryzae) of 12% and an inhibition of growth at 1 ppm (Botrytis cinerea; [3]) of 12%.

Work on `CC1COC(Cn2cncn2)(c2ccc(Oc3ccc(Cl)cc3)cc2Cl)O1` (stereo not drawn) [Difenoconazol, difenoconazole] yielded an inhibition of growth at 0.063 ppm (Botrytis cinerea; [6]) of 8%.

In the case of `CNC(=O)/C(=N/OC)c1ccccc1COc1cc(C)ccc1C` [Dimoxystrobin, dimoxystrobin], the Observed efficacy (Botrytis cinerea; 0.25 ppm) is reported as 2%.

`COc1ccnc(C(=O)N[C@@H](C)C(=O)O[C@@H](C)C(c2ccc(F)cc2)c2ccc(F)cc2)c1OC(C)=O` [Florylpicoxamid, florylpicoxamid] was tested, and the Observed efficacy (Septoria tritici; 0.016 ppm) was 47%, the Observed efficacy (Pyricularia oryzae; 0.004 ppm) was 28% and the Observed efficacy (Pyricularia oryzae; 0.016 ppm) was 70%.

Molecule `O=[N+]([O-])c1cc(C(F)(F)F)c(Cl)c([N+](=O)[O-])c1Nc1ncc(C(F)(F)F)cc1Cl` [Fluazinam, fluazinam] has an inhibition of growth at 0.063 ppm (Septoria tritici; [5]) of 5% and an inhibition of growth at 0.063 ppm (Pyricularia oryzae) of 19%.

Molecule `N#Cc1c[nH]cc1-c1cccc2c1OC(F)(F)O2` [Fludioxonil, fludioxonil] has an inhibition of growth at 0.016 ppm (Septoria tritici; [4]) of 1%, an inhibition of growth at 0.016 ppm (Pyricularia oryzae) of 14% and an inhibition of growth at 0.063 ppm (Pyricularia oryzae) of 45%. It also gave an inhibition of growth at 0.25 ppm (Pyricularia oryzae) of 69%.

In the case of `O=C(NCCc1ncc(C(F)(F)F)cc1Cl)c1ccccc1C(F)(F)F` [Fluopyram, fluopyram], the inhibition of growth at 0.25 ppm (Septoria tritici; [1]) is reported as 33%.

Molecule `Cn1cc(C(=O)Nc2ccccc2-c2cc(F)c(F)c(F)c2)c(C(F)F)n1` [Fluxapyroxad, fluxapyroxad] has an Observed efficacy (Septoria tritici; 0.063 ppm) of 27% and an Observed efficacy (Botrytis cinerea; 0.063 ppm) of 29%.

Work on `CC(C)NC(=O)N1CC(=O)N(c2cc(Cl)cc(Cl)c2)C1=O` [Iprodion, iprodione] yielded an inhibition of growth at 1 ppm (Septoria tritici; [2]) of 9%, an inhibition of growth at 4 ppm (Pyricularia oryzae) of 42% and an inhibition of growth at 1 ppm (Botrytis cinerea; [3]) of 52%.

Molecule `Cc1cc(OC(C)C)ccc1C(=O)C(C)(C)NC(=O)c1sccc1C` [Isofetamid, isofetamid] has an Observed efficacy (Septoria tritici; 0.25 ppm) of 45% and an Observed efficacy (Pyricularia oryzae; 4 ppm) of 15%.

`Cc1cccc(-n2nnn(C)c2=O)c1COc1ccn(-c2ccc(Cl)cc2)n1` [Methyltetraprol, metyltetraprole] gave an Observed efficacy (Septoria tritici; 0.016 ppm) of 51% and an Observed efficacy (Pyricularia oryzae; 0.016 ppm) of 38%.

For `CC(C)CC(C)c1sccc1NC(=O)c1cn(C)nc1C(F)(F)F` (stereo not drawn) [Penthiopyrad, penthiopyrad], the inhibition of growth at 0.063 ppm (Septoria tritici; [5]) was 33% and the inhibition of growth at 0.063 ppm (Botrytis cinerea; [6]) was 10%.

Molecule `OC(Cc1ccccc1Cl)(Cn1nc[nH]c1=S)C1(Cl)CC1` (stereo not drawn) [Prothioconazol, prothioconazole] has an inhibition of growth at 0.25 ppm (Septoria tritici; [1]) of 66%, an inhibition of growth at 1 ppm (Pyricularia oryzae) of 15% and an inhibition of growth at 1 ppm (Botrytis cinerea; [3]) of 22%. The inhibition of growth at 4 ppm (Botrytis cinerea; Botrytis cinerea, 168 h, 4 ppm, read-out: Observed efficacy) was 58%.

For `CON(C(=O)c1cn(C)nc1C(F)F)C(C)Cc1c(Cl)cc(Cl)cc1Cl` (stereo not drawn) [Pydiflumetofen, pydiflumetofen], the Observed efficacy (Septoria tritici; 0.016 ppm) was 67% and the Observed efficacy (Botrytis cinerea; 0.063 ppm) was 15%.

Work on `CC(C)(C)C(O)(CCc1ccc(Cl)cc1)Cn1cncn1` (stereo not drawn) [Tebuconazol, tebuconazole] yielded an inhibition of growth at 0.25 ppm (Septoria tritici; [1]) of 50%, an inhibition of growth at 0.25 ppm (Pyricularia oryzae) of 10% and an inhibition of growth at 0.25 ppm (Botrytis cinerea; Botrytis cinerea, 168 h, 0.25 ppm, read-out: Observed efficacy) of 38%.

`Cc1ccc(NC(=O)c2snnc2C)cc1Cl` [Tiadinil, tiadinil] was tested, and the inhibition of growth at 4 ppm (Septoria tritici; Zymoseptoria tritici, 168 h, 4 ppm, read-out: Observed efficacy) was 10%.
